US20040248739A1, “Pyridylpropynyloxyphenyl derivatives for use as herbicides” (priority 2001, published 2004)

Legend:
Type in all cases: in vivo
[1] = tested on: Panicum; assay: Pre-emergence herbicidal action (Example B1); conditions: 1000 g of active ingredient/ha, after 4 weeks, scale of nine ratings
Experimental: (§1) Monocotyledonous and dicotyledonous test plants are sown in standard soil in pots. Immediately after sowing, the test compounds, in the form of an aqueous suspension (prepared from a wettable powder (Example F3, b) according to WO 97/34485) or in the form of an emulsion (prepared from an emulsifiable concentrate (Example F1, c) according to WO 97/34485), are applied by spraying in an optimum concentration (500 litres of water/ha). The test plants are then grown in a greenhouse under optimum conditions. After a test duration of 4 weeks, the test is evaluated in accordance with a scale of nine ratings (1=total damage, 9=no action). Ratings of from 1 to 4 (especially from 1 to 3) indicate good to very good herbicidal action. Test plants: Panicum, Echinochloa (Ds), Amaranthus, Chenopodium, Stellaria, Veronica.

[2] = tested on: Echinochloa (Ds); assay: Pre-emergence herbicidal action (Example B1); conditions: 1000 g of active ingredient/ha, after 4 weeks, scale of nine ratings
Experimental: as §1

[3] = tested on: Veronica; assay: Pre-emergence herbicidal action (Example B1); set-up: key: 1=total damage; 9=no action; Ratings of from 1 to 4 (especially from 1 to 3) indicate good to very good herbicidal action; conditions: 1000 g of active ingredient/ha, after 4 weeks, scale of nine ratings
Experimental: as §1

[4] = tested on: Stellaria; assay: Pre-emergence herbicidal action (Example B1); set-up: key: 1=total damage; 9=no action; Ratings of from 1 to 4 (especially from 1 to 3) indicate good to very good herbicidal action; conditions: 1000 g of active ingredient/ha, after 4 weeks, scale of nine ratings
Experimental: as §1

[5] = tested on: Amaranthus; assay: Pre-emergence herbicidal action (Example B1); set-up: key: 1=total damage; 9=no action; Ratings of from 1 to 4 (especially from 1 to 3) indicate good to very good herbicidal action; conditions: 1000 g of active ingredient/ha, after 4 weeks, scale of nine ratings
Experimental: as §1

[6] = tested on: Chenopodium; assay: Pre-emergence herbicidal action (Example B1); set-up: key: 1=total damage; 9=no action; Ratings of from 1 to 4 (especially from 1 to 3) indicate good to very good herbicidal action; conditions: 1000 g of active ingredient/ha, after 4 weeks, scale of nine ratings
Experimental: as §1

[7] = tested on: Amaranthus; assay: Post-emergence herbicidal action (Example B2); set-up: key: 1=total damage; 9=no action; Ratings of from 1 to 4 (especially from 1 to 3) indicate good to very good herbicidal action; conditions: post-emergence (2- to 3-leaf stage), 1000 g of active ingredient/ha, after 2 to 3 weeks, scale of nine ratings
Experimental: as §1, with “pots. When the test plants are at the 2- to 3-leaf stage,” for “pots. Immediately after sowing,”, “grown on” for “grown”, “of 2 to 3” for “of 4”, “Panicum, Euphorbia,” for “Panicum, Echinochloa (Ds),”

[8] = tested on: Chenopodium; assay: Post-emergence herbicidal action (Example B2); set-up: key: 1=total damage; 9=no action; Ratings of from 1 to 4 (especially from 1 to 3) indicate good to very good herbicidal action; conditions: post-emergence (2- to 3-leaf stage), 1000 g of active ingredient/ha, after 2 to 3 weeks, scale of nine ratings
Experimental: as §1, with “pots. When the test plants are at the 2- to 3-leaf stage,” for “pots. Immediately after sowing,”, “grown on” for “grown”, “of 2 to 3” for “of 4”, “Panicum, Euphorbia,” for “Panicum, Echinochloa (Ds),”

[9] = tested on: Veronica; assay: Post-emergence herbicidal action (Example B2); conditions: post-emergence (2- to 3-leaf stage), 1000 g of active ingredient/ha, after 2 to 3 weeks, scale of nine ratings
Experimental: as §1, with “pots. When the test plants are at the 2- to 3-leaf stage,” for “pots. Immediately after sowing,”, “grown on” for “grown”, “of 2 to 3” for “of 4”, “Panicum, Euphorbia,” for “Panicum, Echinochloa (Ds),”

[10] = tested on: Euphorbia; assay: Post-emergence herbicidal action (Example B2); conditions: post-emergence (2- to 3-leaf stage), 1000 g of active ingredient/ha, after 2 to 3 weeks, scale of nine ratings
Experimental: as §1, with “pots. When the test plants are at the 2- to 3-leaf stage,” for “pots. Immediately after sowing,”, “grown on” for “grown”, “of 2 to 3” for “of 4”, “Panicum, Euphorbia,” for “Panicum, Echinochloa (Ds),”

[11] = tested on: Stellaria; assay: Post-emergence herbicidal action (Example B2); conditions: post-emergence (2- to 3-leaf stage), 1000 g of active ingredient/ha, after 2 to 3 weeks, scale of nine ratings
Experimental: as §1, with “pots. When the test plants are at the 2- to 3-leaf stage,” for “pots. Immediately after sowing,”, “grown on” for “grown”, “of 2 to 3” for “of 4”, “Panicum, Euphorbia,” for “Panicum, Echinochloa (Ds),”

COc1cc(F)ccc1OCC#Cc1ccc(Cl)nc1 [1.004, 2-Chloro-5-[3-(4-fluoro-2-methoxy-phenoxy)-prop-1-ynyl]-pyridine]
Panicum, herbicidal rating [1]: 2
Echinochloa (Ds), herbicidal rating [2]: 2
Veronica, herbicidal rating [3]: 1
Stellaria, herbicidal rating [4]: 1
Amaranthus, herbicidal rating [5]: 1
Chenopodium, herbicidal rating [6]: 1
Amaranthus, herbicidal rating [7]: 1
Chenopodium, herbicidal rating [8]: 1
Veronica, herbicidal rating [9]: 2
Euphorbia, herbicidal rating [10]: 2
Stellaria, herbicidal rating [11]: 2
